According to the supplement of paper PMC10307832:

Tests used:
Test in all cases: relative viability (nuclei count vs DMSO), 5 days (fraction); higher = more cells survive
[1] = compound: C(C(=O)C(=O)O)Br [Bromopyruvate] + CC(=O)c1c(C)c2cnc(Nc3ccc(N4CCNCC4)cn3)nc2n(C2CCCC2)c1=O [Palbociclib] (partner 0.5 µM)
In short: (§1)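 Lung cancer cell lines were seeded in 1536-well plates and dosed by pin tool the next day, with either a single drug or a fixed anchor-drug dose combined with five library-drug doses (not always all listed) spaced in √10 steps. Five days later, one step fixed the cells and stained their nuclei (final 0.05% Triton X-100, 1% formaldehyde, 1 ug/ml Hoechst), and nuclei were counted on 4× images. Relative viability is the nuclei count in treated wells divided by the count in vehicle wells, and each value is the median of duplicate plates.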

Bicalutamide + Olaparib = compound: CC(O)(CS(=O)(=O)c1ccc(F)cc1)C(=O)Nc1ccc(C#N)c(C(F)(F)F)c1 [Bicalutamide] + O=C(c1cc(Cc2n[nH]c(=O)c3ccccc23)ccc1F)N1CCN(C(=O)C2CC2)CC1 [Olaparib] (partner 8 µM)
In short: as §1

[2] = compound: CC(O)(CS(=O)(=O)c1ccc(F)cc1)C(=O)Nc1ccc(C#N)c(C(F)(F)F)c1 [Bicalutamide] + CC(=O)c1c(C)c2cnc(Nc3ccc(N4CCNCC4)cn3)nc2n(C2CCCC2)c1=O [Palbociclib] (partner 0.5 µM)
In short: as §1

[3] = compound: CC(O)(CS(=O)(=O)c1ccc(F)cc1)C(=O)Nc1ccc(C#N)c(C(F)(F)F)c1 [Bicalutamide] + CS(=O)(=O)N1CCN(Cc2cc3nc(-c4cccc5[nH]ncc45)nc(N4CCOCC4)c3s2)CC1 [Pictilisib] (partner 1 µM)
In short: as §1

Row | Cell Line | relative viability ([1]; first compound 1 µM) | relative viability ([1]; first compound 3.162 µM) | relative viability ([1]; first compound 10 µM) | relative viability ([1]; first compound 31.62 µM) | relative viability ([1]; first compound 100 µM) | relative viability (Bicalutamide + Olaparib; first compound 0.08 µM) | relative viability (Bicalutamide + Olaparib; first compound 0.253 µM) | relative viability (Bicalutamide + Olaparib; first compound 0.8 µM) | relative viability (Bicalutamide + Olaparib; first compound 2.53 µM) | relative viability ([2]; first compound 0.08 µM) | relative viability ([2]; first compound 0.253 µM) | relative viability ([2]; first compound 0.8 µM) | relative viability ([2]; first compound 2.53 µM) | relative viability ([3]; first compound 0.08 µM) | relative viability ([3]; first compound 0.253 µM) | relative viability ([3]; first compound 0.8 µM) | relative viability ([3]; first compound 2.53 µM)
1 | 201T | 0.341 | 0.348 | 0.344 | 0.35 | 0.382 | 0.881 | 0.885 | 0.846 | 0.877 | 0.379 | 0.351 | 0.386 | 0.365 | 0.685 | 0.658 | 0.742 | 0.674
2 | A549 | – | – | – | – | – | 0.355 | 0.353 | 0.42 | 0.302 | – | – | – | – | 0.546 | 0.483 | 0.617 | 0.357
3 | A-427 | 0.51 | 0.552 | 0.551 | 0.536 | 0.497 | 0.704 | 0.692 | 0.842 | 0.707 | 0.547 | 0.54 | 0.56 | 0.526 | 0.676 | 0.812 | 0.867 | 0.628
4 | ABC-1 | 0.662 | – | – | – | 0.792 | 0.815 | 0.975 | 1.21 | 1.01 | 0.698 | 0.474 | 0.808 | 0.601 | 0.812 | 0.731 | 1.06 | 0.758
5 | BEN | 0.457 | 0.449 | 0.505 | 0.497 | 0.486 | 1.1 | 1.15 | 1.26 | 1.06 | 0.442 | 0.438 | 0.526 | 0.496 | 0.589 | 0.472 | 0.713 | 0.632
6 | CAL-12T | 0.429 | 0.444 | 0.552 | 0.395 | 0.285 | 0.753 | 0.711 | 0.769 | 0.63 | 0.505 | 0.352 | 0.533 | 0.329 | 0.394 | 0.415 | 0.454 | 0.345
7 | COR-L23 | 0.239 | 0.283 | 0.232 | 0.255 | 0.178 | 0.319 | 0.309 | 0.294 | 0.293 | 0.359 | 0.293 | 0.353 | 0.269 | 0.896 | 0.724 | 0.945 | 0.765
8 | COR-L 105 | 0.404 | 0.396 | 0.415 | 0.374 | 0.429 | 0.847 | 0.777 | 0.632 | 0.662 | 0.405 | 0.407 | 0.379 | 0.379 | 0.372 | 0.324 | 0.394 | 0.303
9 | Calu-6 | – | – | – | – | – | 0.667 | 0.52 | 0.586 | 0.604 | – | – | – | – | 1.06 | 0.87 | 1.04 | 0.839
10 | ChaGo-K-1 | 0.93 | 0.947 | 0.979 | 0.87 | 0.876 | 0.4 | 0.423 | 0.466 | 0.446 | 0.933 | 0.849 | 1.04 | 0.961 | 0.818 | 0.606 | 0.892 | 0.523
11 | EBC-1 | – | – | – | – | – | 0.707 | 0.638 | 0.746 | 0.654 | – | – | – | – | 0.41 | 0.362 | 0.378 | 0.23
12 | EKVX | 0.217 | 0.387 | 0.459 | 0.494 | 0.44 | 0.917 | 0.861 | 1 | 0.79 | 0.381 | 0.392 | 0.445 | 0.374 | 0.456 | 0.366 | 0.434 | 0.455
13 | EMC-BAC-2 | 0.434 | 0.546 | 0.554 | 0.506 | 0.533 | 0.528 | 0.462 | 0.494 | 0.397 | 0.532 | 0.502 | 0.543 | 0.437 | 0.517 | 0.531 | 0.527 | 0.456
14 | EPLC-272H | 0.321 | 0.372 | 0.386 | 0.31 | 0.362 | 0.791 | 0.699 | 0.695 | 0.682 | 0.328 | 0.313 | 0.341 | 0.295 | 0.311 | 0.266 | 0.329 | 0.33
15 | IA-LM | – | – | – | – | – | 0.959 | 0.738 | 1.08 | 0.943 | – | – | – | – | 0.368 | 0.389 | 0.422 | 0.507
16 | NCI-H522 | 1.02 | 1.03 | 1 | 1.02 | 1.1 | 0.711 | 0.599 | 0.788 | 0.693 | 0.949 | 1.11 | 1.11 | 0.894 | – | – | – | –
17 | NCI-H596 | – | – | – | – | – | 0.604 | 0.767 | 0.799 | 0.844 | – | – | – | – | 0.409 | 0.623 | 0.404 | 0.475
18 | NCI-H1299 | – | – | – | – | – | 0.993 | 0.942 | 0.974 | 0.864 | – | – | – | – | 0.909 | 0.698 | 0.823 | 0.492
19 | NCI-H1563 | – | – | – | – | – | – | – | – | – | – | – | – | – | 0.641 | 0.596 | 0.644 | 0.599
20 | NCI-H1648 | 0.211 | 0.242 | 0.283 | 0.298 | 0.328 | – | – | 0.775 | 0.949 | – | – | 0.317 | 0.254 | – | – | – | –
21 | NCI-H1703 | – | – | – | – | – | 0.431 | 0.387 | 0.391 | 0.231 | – | – | – | – | 0.235 | 0.261 | 0.236 | 0.231
22 | NCI-H2342 | 0.487 | 0.55 | 0.476 | 0.485 | 0.458 | 0.524 | 0.501 | 0.491 | 0.44 | 0.526 | 0.519 | 0.726 | 0.523 | – | – | – | –
23 | SW 900 | 0.524 | 0.486 | 0.536 | 0.589 | 0.5 | 0.798 | 0.721 | 1.21 | 0.803 | 0.602 | 0.596 | 0.529 | 0.511 | – | – | – | –
